Laboratory results: US12685312B2, “Sulfonamide apyrase inhibitors” (Texas Crop Science, Inc., priority 2022, dated 2026)

tested on: apyrase; assay: Screen for apyrase inhibitors (Method 1, in vitro phosphate-release absorbance assay); assay type: biochemical; details: inhibitor conc at 1 mM stock, 1 hr room temperature, absorbance 630 nm; rounded average of two assay results
Summary of the method: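 Phosphate-release colorimetric assay (Windsor method) in 60 mM Hepes, 3 mM MgCl2, 3 mM CaCl2, 3 mM ATP, pH 6.5, with compound or DMSO control added. Released phosphate developed with ammonium molybdate and ascorbic acid/TCA, then stopped with citrate/acetic acid.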

Structure (SMILES)	% Inhibition of Apyrase [%]
O=C(c1cc(S(=O)(=O)Nc2ccc(Cl)cc2)ccc1Cl)N1CCc2ccccc21 [I-490, 4-chloro-N-(4-chlorophenyl)-3-(indoline-1-carbonyl)benzenesulfonamide]	58
Cc1cccc(NS(=O)(=O)c2cccc(C(=O)Nc3ccc(Br)c(C)c3)c2)c1 [I-491, N-(4-bromo-3-methylphenyl)-3-(N-(m-tolyl)sulfamoyl)benzamide]	58
O=C(Nc1ccccc1N1CCCC1)c1cccc(S(=O)(=O)N2CCc3ccccc32)c1 [I-492, 3-(indolin-1-ylsulfonyl)-N-(2-(pyrrolidin-1-yl)phenyl)benzamide]	58
Cc1cc(F)c2c(c1)CCCN2C(=O)c1cccc(S(=O)(=O)N2CCc3ccccc32)c1 [I-493, (8-fluoro-6-methyl-3,4-dihydroquinolin-1(2H)-yl)(3-(indolin-1-ylsulfonyl)phenyl)methanone]	58
CC1Cc2ccccc2N1S(=O)(=O)c1cccc(C(=O)N2CCc3cccc(F)c32)c1 (stereo not drawn) [I-494, (7-fluoroindolin-1-yl)(3-((2-methylindolin-1-yl)sulfonyl)phenyl)methanone]	57
O=C(c1ccc(Cl)c(S(=O)(=O)N2CCc3ccccc32)c1)N1CCc2cc([N+](=O)[O-])ccc21 [I-495, (4-chloro-3-(indolin-1-ylsulfonyl)phenyl)(5-nitroindolin-1-yl)methanone]	57
O=C(Nc1cc2c(cc1Cl)OCO2)c1ccc(Cl)c(S(=O)(=O)N2CCc3ccccc32)c1 [I-496, 4-chloro-N-(6-chlorobenzo[d][1,3]dioxol-5-yl)-3-(indolin-1-ylsulfonyl)benzamide]	57
Cc1ccc(F)c(NC(=O)c2cccc(S(=O)(=O)N3c4ccccc4CC3C)c2)c1 (stereo not drawn) [I-497, N-(2-fluoro-5-methylphenyl)-3-((2-methylindolin-1-yl)sulfonyl)benzamide]	57
O=C(c1cccc(S(=O)(=O)N2CCc3ccccc32)c1)N1CCCc2ccccc21 [I-498, (3,4-dihydroquinolin-1(2H)-yl)(3-(indolin-1-ylsulfonyl)phenyl)methanone]	57
COc1ccc(S(=O)(=O)N2CCc3ccccc32)cc1C(=O)Nc1cccc(C)c1 [I-499, 5-(indolin-1-ylsulfonyl)-2-methoxy-N-(m-tolyl)benzamide]	57
COc1cccc(NC(=O)c2ccc(Cl)c(S(=O)(=O)N3CCc4ccccc43)c2)c1 [I-500, 4-chloro-3-(indolin-1-ylsulfonyl)-N-(3-methoxyphenyl)benzamide]	57
Cc1ccc(NC(=O)c2cccc(S(=O)(=O)N3CCc4ccccc43)c2)cc1 [I-501, 3-(indolin-1-ylsulfonyl)-N-(p-tolyl)benzamide]	57
Cc1ccc(NC(=O)c2cccc(S(=O)(=O)N(C)c3ccc(C)cc3)c2)cc1 [I-502, 3-(N-methyl-N-(p-tolyl)sulfamoyl)-N-(p-tolyl)benzamide]	57
O=C(Nc1ccc(Cl)cc1)c1cccc(S(=O)(=O)N2CCc3ccccc32)c1 [I-503, N-(4-chlorophenyl)-3-(indolin-1-ylsulfonyl)benzamide]	57
Cc1ccc(N(C)S(=O)(=O)c2cccc(C(=O)Nc3ccc4c(c3)CCC4)c2)cc1 [I-504, N-(2,3-dihydro-1H-inden-5-yl)-3-(N-methyl-N-(p-tolyl)sulfamoyl)benzamide]	57
COc1ccc(S(=O)(=O)N2CCc3ccccc32)cc1C(=O)Nc1ccc(C(F)(F)F)cc1 [I-505, 5-(indolin-1-ylsulfonyl)-2-methoxy-N-(4-(trifluoromethyl)phenyl)benzamide]	57
CCOC(=O)c1c(NC(=O)c2cccc(S(=O)(=O)Nc3ccc(Cl)cc3)c2)sc2c1CCCC2 [I-506, ethyl 2-(3-(N-(4-chlorophenyl)sulfamoyl)benzamido)-4,5,6,7-tetrahydrobenzo[b]thiophene-3-carboxylate]	57
CCOC(=O)c1c(NC(=O)c2cccc(S(=O)(=O)Nc3cccc(Cl)c3)c2)sc2c1CCCC2 [I-507, ethyl 2-(3-(N-(3-chlorophenyl)sulfamoyl)benzamido)-4,5,6,7-tetrahydrobenzo[b]thiophene-3-carboxylate]	57
Cc1ccc(NS(=O)(=O)c2cccc(C(=O)Nc3c(C)cc(C)cc3C)c2)c(C)c1 [I-508, 3-(N-(2,4-dimethylphenyl)sulfamoyl)-N-mesitylbenzamide]	57
COc1ccc2c(c1)CCCN2C(=O)c1cccc(S(=O)(=O)N2CCc3ccccc32)c1 [I-509, (3-(indolin-1-ylsulfonyl)phenyl)(6-methoxy-3,4-dihydroquinolin-1(2H)-yl)methanone]	56
Cc1cccc2c1N(C(=O)c1cccc(S(=O)(=O)N3CCc4ccccc43)c1)CCC2 [I-510, (3-(indolin-1-ylsulfonyl)phenyl)(8-methyl-3,4-dihydroquinolin-1(2H)-yl)methanone]	56

Structure (SMILES)	% Inhibition of Apyrase [%]
COc1ccc(S(=O)(=O)N2CCc3ccccc32)cc1C(=O)Nc1ccc2c(c1)OCO2 [I-511, N-(benzo[d][1,3]dioxol-5-yl)-5-(indolin-1-ylsulfonyl)-2-methoxybenzamide]	56
O=C(Nc1ccc(F)cc1)c1cccc(S(=O)(=O)N2CCc3ccccc32)c1 [I-512, N-(4-fluorophenyl)-3-(indolin-1-ylsulfonyl)benzamide]	56
O=C(Nc1ccc(F)cc1)c1ccc(Cl)c(S(=O)(=O)N2CCc3ccccc32)c1 [I-513, 4-chloro-N-(4-fluorophenyl)-3-(indolin-1-ylsulfonyl)benzamide]	56
COc1ccc(NC(=O)c2cccc(S(=O)(=O)N(C)c3ccc(OC)cc3)c2)cc1 [I-514, N-(4-methoxyphenyl)-3-(N-(4-methoxyphenyl)-N-methylsulfamoyl)benzamide]	56
O=C(Nc1cccc(Cl)c1)c1cccc(S(=O)(=O)N2CCc3ccccc32)c1 [I-515, N-(3-chlorophenyl)-3-(indolin-1-ylsulfonyl)benzamide]	56
C=CCN(c1ccccc1Cl)S(=O)(=O)c1cc(C(=O)N2CCc3ccccc32)ccc1Cl [I-516, N-allyl-2-chloro-N-(2-chlorophenyl)-5-(indoline-1-carbonyl)benzenesulfonamide]	56
Cc1ccc(F)cc1NC(=O)c1cccc(S(=O)(=O)N2CCc3ccccc32)c1 [I-517, N-(5-fluoro-2-methylphenyl)-3-(indolin-1-ylsulfonyl)benzamide]	56
Cc1cccc(NC(=O)c2cc(S(=O)(=O)Nc3cccc(C)c3)ccc2Cl)c1 [I-518, 2-chloro-N-(m-tolyl)-5-(N-(m-tolyl)sulfamoyl)benzamide]	56
O=C(Nc1ccc(Cl)cc1Cl)c1cccc(S(=O)(=O)Nc2ccc(Cl)cc2)c1 [I-519, 3-(N-(4-chlorophenyl)sulfamoyl)-N-(2,4-dichlorophenyl)benzamide]	56
COc1ccc(Cl)cc1NS(=O)(=O)c1cccc(C(=O)N2CCc3ccccc32)c1 [I-520, N-(5-chloro-2-methoxyphenyl)-3-(indoline-1-carbonyl)benzenesulfonamide]	56
O=C(c1cccc(S(=O)(=O)Nc2ccc(OCc3ccccc3)cc2)c1)N1CCc2ccccc21 [I-521, N-(4-(benzyloxy)phenyl)-3-(indoline-1-carbonyl)benzenesulfonamide]	56
CC1Cc2ccccc2N1S(=O)(=O)c1cccc(C(=O)Nc2ccc3c(c2)OCO3)c1 (stereo not drawn) [I-522, N-(benzo[d][1,3]dioxol-5-yl)-3-((2-methylindolin-1-yl)sulfonyl)benzamide]	55
O=C(Nc1ccc2c(c1)OCCO2)c1cccc(S(=O)(=O)N2CCc3ccccc32)c1 [I-523, N-(2,3-dihydrobenzo[b][1,4]dioxin-6-yl)-3-(indolin-1-ylsulfonyl)benzamide]	55
O=C(Nc1ccc2c(c1)OCCO2)c1ccc(Cl)c(S(=O)(=O)N2CCc3ccccc32)c1 [I-524, 4-chloro-N-(2,3-dihydrobenzo[b][1,4]dioxin-6-yl)-3-(indolin-1-ylsulfonyl)benzamide]	55
COc1ccc(S(=O)(=O)N2CCc3ccccc32)cc1C(=O)Nc1cccc(Br)c1 [I-525, N-(3-bromophenyl)-5-(indolin-1-ylsulfonyl)-2-methoxybenzamide]	55
CC1Cc2ccccc2N1S(=O)(=O)c1cccc(C(=O)Nc2ccc(S(=O)(=O)N(C)C)cc2)c1 (stereo not drawn) [I-526, N-(4-(N,N-dimethylsulfamoyl)phenyl)-3-((2-methylindolin-1-yl)sulfonyl)benzamide]	55
O=C(Nc1cccc(S(=O)(=O)N2CCOCC2)c1)c1cccc(S(=O)(=O)N2CCc3ccccc32)c1 [I-527, 3-(indolin-1-ylsulfonyl)-N-(3-(morpholinosulfonyl)phenyl)benzamide]	55
CN(c1ccc(F)cc1)S(=O)(=O)c1ccc(Cl)c(C(=O)Nc2ccc(F)c(Cl)c2)c1 [I-528, 2-chloro-N-(3-chloro-4-fluorophenyl)-5-(N-(4-fluorophenyl)-N-methylsulfamoyl)benzamide]	55
NS(=O)(=O)c1cccc(NC(=O)c2cccc(S(=O)(=O)N3CCc4ccccc43)c2)c1 [I-529, 3-(indolin-1-ylsulfonyl)-N-(3-sulfamoylphenyl)benzamide]	55
COc1cc(OC)c(NS(=O)(=O)c2cc(C(=O)Nc3ccc(OC(F)(F)F)cc3)ccc2C)cc1Cl [I-530, 3-(N-(5-chloro-2,4-dimethoxyphenyl)sulfamoyl)-4-methyl-N-(4-(trifluoromethoxy)phenyl)benzamide]	55
O=C(Nc1ccc2c(c1)OC1(CCCC1)O2)c1cccc(S(=O)(=O)Nc2ccc3c(c2)OCO3)c1 [I-531, 3-(N-(benzo[d][1,3]dioxol-5-yl)sulfamoyl)-N-(spiro[benzo[d][1,3]dioxole-2,1′-cyclopentan]-5-yl)benzamide]	55
